Laboratory results taken from paper PMC2377083, “IDN 5390: an oral taxane candidate for protracted treatment schedules” (British Journal of Cancer, 2003).
Values after ≈ are worked out from the molar mass of the structure shown.

Legend:
[1] = system: A2780 (human ovarian carcinoma); test: Antiproliferative activity, A2780; format: cell-based; conditions: 72 h treatment, cell counting, mean±s.d., three experiments
Method: (§1) Drugs were dissolved in DMSO and freshly diluted in medium before use. The antiproliferative activity was evaluated on A2780 (human ovarian carcinoma) and its derived drug-resistant cell lines (A2780/DX, A2780/DDP), IGROV-1/Pt1 (human ovarian carcinoma), GBM (human glioblastoma) and MX-1 (human mammary carcinoma). All cell lines, except MX-1, were maintained in RPMI 1640 (Bio-Whittaker, Verviers, Belgium) supplemented with 10% fetal calf serum (Life Technologies, Gaithersburg, MD, USA). MX-1 cells were maintained in McCoy's medium (Life Technologies, Gaithersburg, MD, USA) supplemented with 10% fetal calf serum. For experiments, all cell lines were seeded into six-well plates in duplicate and treated, 24 or 72 h (only MX-1 cells) after seeding, with solvent or different concentrations of taxanes. Adherent cells were counted 72 h after the beginning of treatment, by a cell counter (Coulter Electronics, Luton, UK) or detected by the Sulforhodamine B colorimetric assay (only GBM cells). The IC50 was defined as the drug concentration causing a 50% decrease in cell number over that of untreated controls.

A2780/DX cells = test: Antiproliferative activity, A2780/DX; format: cell-based; conditions: Homo sapiens, 72 h treatment, cell counting, MDR phenotype mediated by P-gp
Method: as §1

A2780/DDP cells = test: Antiproliferative activity, A2780/DDP; format: cell-based; conditions: Homo sapiens, 72 h treatment, cell counting, mean±s.d., three experiments
Method: as §1

[2] = system: IGROV-1/Pt (human ovarian carcinoma); test: Antiproliferative activity, IGROV-1/Pt; format: cell-based
Method: as §1

[3] = system: MX-1 (human mammary carcinoma); test: Antiproliferative activity, MX-1; format: cell-based; conditions: 72 h treatment, cell counting, mean±s.d., three experiments
Method: as §1

GBM (human glioblastoma) = test: Antiproliferative activity, GBM (Sulforhodamine B); format: cell-based
Method: as §1

[4] = mouse, in vivo
in vivo = conditions: female, athymic nude CD-1, mouse, sc
[5] = system: A2780/DDP ovarian tumour xenograft; test: Antitumour activity on A2780/DDP xenograft; conditions: for Tox/Tot: toxic deaths/total mice
Method: All the experiments were carried out using female athymic nude CD-1 mice, 8–11 weeks old (Charles River, Calco, Italy). The mice were maintained in laminar flow rooms with constant temperature and humidity.
Taxanes were dissolved by adding absolute ethanol and Cremophor ELP (both 5% of the final volume), in that sequence, on a magnetic stirrer. […] After dilution, the drug solutions were always kept on ice. […] (Milano, Italy) and, just before use, it was diluted, by slowly adding 0.9% NaCl and occasionally stirring the solution (final Polysorbate 80: 10%, v v^−1). […] When higher doses were to be given, larger volumes were injected.
Tumour lines were maintained in vivo by successive s.c. transplants of tumour fragments in animal flanks.
For chemotherapy experiments, tumour fragments (about 2 × 2 × 2 mm), obtained from tumour lines, were implanted s.c. Each control or drug-treated group included five or six mice bearing bilateral s.c. tumours. Tumours were implanted on day 0, and tumour growth was followed by biweekly measurements of tumour diameters with a vernier caliper. Tumour weight (TW) was calculated according to the formula: TW (mg)=tumour volume (mm^3)=d^2 × D/2, where d and D are the shortest and the longest diameter, respectively. Different treatment routes (i.v., s.c. or p.o.) and schedules (daily or intermittent) were investigated. […] Control mice were injected with the solvent solution.
Experimental groups were eliminated when mean TW was about 1.5±0.5 g, or after 100 days.
For statistical analysis, tumour weights in different groups of treated mice were compared on day of TWI% evaluation, by Student's t-test (two-tailed). P⩽0.05 was considered significant.
The tolerability of the compound was assessed in tumour-bearing mice as follows: (a) lethal toxicity, that is, any death in treated mice without or with small (⩽300 mg) tumours, or occurring before any control death; (b) body weight loss % (BWL%)=100–(BW on day x/BW on day 1 × 100), where x represents a day after or during the treatment period. The maximal BWL values are reported; and (c) vesicant toxicity defined as the appearance of ulcers and/or inflammation at the injection site where the drugs were delivered s.c.

VEGF = VEGF expression in GBM cells, immunoblotting; conditions: 72 h at IC80: IDN 5390 40, PTX 17 ng ml^−1
[6] = s.c., qd × 5/w × 2w, 120 mg kg^−1

For `CC(=O)O[C@@]1([C@@H]2/C(C)=C(/O)C(=O)C3=C(C)[C@@H](OC(=O)[C@H](O)[C@H](CC(C)C)NC(=O)OC(C)(C)C)C[C@@](O)([C@H]2OC(=O)c2ccccc2)C3(C)C)CO[C@@H]1CCO` [IDN 5390, 13-(N-Boc-β-isobutylisoserinyl)-10β-dehydro-C-seco-10-deacetylbaccatin III], the IC50 [1] was 0.023 ± 0.0004 µg/mL (≈ 0.0292 µM), the IC50 (A2780/DX cells) was 0.334 µg/mL (≈ 0.424 µM) and the IC50 (A2780/DDP cells) was 0.0318 ± 0.0055 µg/mL (≈ 0.0404 µM). The IC50 ([2]; IGROV-1, 72 h treatment, cell counting, mean±s.d., three experiments) was 0.0615 ± 0.0045 µg/mL (≈ 0.0781 µM), the IC80 ([2]; IGROV-1/Pt cells, read-out: IC80 (equitoxic concentration)) was 0.3 µg/mL (≈ 0.381 µM) and the IC50 [3] was 0.0345 ± 0.0078 µg/mL (≈ 0.0438 µM). For the same molecule, the IC50 (GBM (human glioblastoma); 72 h treatment, Sulforhodamine B assay, mean±s.d., three experiments) was 0.0129 ± 0.0024 µg/mL (≈ 0.0164 µM), the IC80 (GBM (human glioblastoma); GBM cells, read-out: IC80 (equitoxic concentration)) was 0.04 µg/mL (≈ 0.0508 µM) and the neurotoxicity [4] was “no symptoms of neurotoxicity were evident”. For the same molecule, the MTD (in vivo) was 120 mg/kg, the “LCK (1 g)” value ([5]; i.v., q4d × 4, 90 mg kg^−1) was 0.2 and the “Max BWL (%)” value ([5]; i.v., q4d × 4, 90 mg kg^−1) was 0%. The “Max TWI%” value ([5]; i.v., q4d × 4, 90 mg kg^−1, day 18, start at tumour weight about 100 mg) was 17 (18) %, the Tox/Tot ([5]; i.v., q4d × 4, 90 mg kg^−1) was 0/5 and the “LCK (1 g)” value ([5]; i.v., q4d × 4, 120 mg kg^−1) was 0.3. The “Max BWL (%)” value ([5]; i.v., q4d × 4, 120 mg kg^−1) was 3%, the “Max TWI%” value ([5]; i.v., q4d × 4, 120 mg kg^−1, day 18) was 46 (18) % and the Tox/Tot ([5]; i.v., q4d × 4, 120 mg kg^−1) was 0/5. For the same molecule, the “LCK (1 g)” value [5, 6] was 1.8, the “Max BWL (%)” value [5, 6] was 2.5% and the “Max TWI%” value ([5]; s.c., qd × 5/w × 2w, 120 mg kg^−1, day 27) was 92 (27) %. The Tox/Tot [5, 6] was 0/5 and the VEGF expression (VEGF) was “downregulated”.
